The values below come from patent US11078207B2, “Substituted pyrrolo[2,3-d]pyrimidines as HER2 inhibitors” (TAIHO PHARMACEUTICAL CO., LTD., priority 2019, dated 2021).

The test system of one data set is NCI-N87 cells. Put plainly: Growth inhibitory activity against HER2 expressing cell line NCI-N87. It is filed as cell-based. The following applies: Homo sapiens, NCI-N87, 72 h; 3 days, CellTiter-Glo 2.0. The method, then: NCI-N87 cells as a HER2 overexpressing human stomach cancer cell line (American Type Culture Collection, Cat No. ATCC (registered trademark) CRL-5822) were suspended in an RPMI640 medium (Wako Pure Chemical Industries, Ltd.) supplemented with 10% fetal bovine serum. Subsequently, the cell suspension was seeded in each well of a 96-well flat-bottom microplate, and was then cultured in a 5% carbon dioxide gas-containing culture vessel at 37° C. for 1 day. Thereafter, the compound of the present invention was dissolved in DMSO, and the compound was diluted to 1000 times the final concentration in DMSO. The compound in the DMSO solution was diluted with the medium used in the suspension of the cells, and the obtained solution was then added to each well of the culture plate, so that the final concentration of DMSO became 0.1%. Regarding a control well, DMSO was diluted with the medium used in the suspension of the cells, and the obtained solution was then added to each well of the culture plate, so that the final concentration of DMSO became 0.1%. After addition of a drug solution, the obtained mixture was further cultured in the 5% carbon dioxide gas-containing culture vessel at 37° C. for 3 days. After completion of the culture for 3 days in the presence of the compound, the cells were counted using CellTiter-Glo 2.0 (manufactured by Promega) in accordance with the protocols recommended by Promega. The growth inhibition percentage was calculated according to the following equation. […] Growth inhibitory percentage (%)=(C−T)/(C)×100 T: Emission intensity from the well to which the test compound was added C: Emission intensity from the well to which the test compound was not added

The nature of data set [1]: Body weight change in NCI-N87-Luc direct brain transplantation models. It is filed as in vivo, nude mouse (BALB/cAJcl-nu/nu). The following applies: oral 25 mg/kg/day, Days 1-21, nude mice. The method, then: (§1) The test compound was orally administered to the mice once a day, every day, for 21 days from the following day of the grouping (Days 1-21).
(§2) For judgment of the presence or absence of effects, the value (Log 10) obtained by logarithmic transformation of the total flux on the judgment date was used. The test compound was administered to the mice at a dose of 25 mg/kg/day in Example 2 and Example 11, whereas it was administered at a dose of 50 mg/kg/day in Example 12.
(§3) The value obtained by logarithmic transformation (Log 10) of the total flux on Day 22 in each group was analyzed by a Dunnett test or a Student-t test.

The subject of the next data set is NCI-N87-Luc. Put plainly: Antitumor effect (in vivo) on direct brain transplantation models of NCI-N87-Luc. On the set-up: species or system nude mouse (BALB/cAJcl-nu/nu). The following applies: Days 1-21.
From the text: In order to confirm the antitumor effects of a test compound on direct brain transplantation models, NCI-N87-Luc, which was obtained by introducing a luciferase gene into NCI-N87 that was a human stomach cancer tumor cell line purchased from American Type Culture Collection, was used.
The NCI-N87-Luc cells were re-suspended in PBS in a concentration of 6.25×10^7 cells/mL.
Using a mouse ear bar, a nude mouse with 6 to 7 weeks old (BALB/cAJcl-nu/nu, CLEA Japan, Inc.) was fixed in a brain stereotaxic apparatus, and the skin on the upper brain portion was disinfected with alcohol cotton and was then excised with a surgical knife.
A microdrill was used to drill a hole in the skull, and then, using a needle, a manipulator, and a syringe pump, 4 μL of the cell suspension was transplanted into the brain at a rate of 0.8 μL/min.
As a reference of the amount of brain tumor, approximately 3 weeks after the transplantation, Total Flux (Photon/sec) was measured in all of the survival cases, using IVIS (PerkinElmer, Inc., model: Lumina II). Based on the obtained results, 6 animals were assigned to each group, using the grouping program of MiSTAT (Ver. 2.00).
as §1, §2
A graph was prepared with the value obtained by logarithmic transformation (Log 10) of the average total flux of each group as a vertical axis, and with the number of days (Day) after the transplantation as a horizontal axis. The transition of the total flux over time in the drug administration period was observed. […]
as §3

Usually IC50 stands for the concentration at which inhibition is half-maximal. Low readings indicate greater potency, high ones weaker potency. The molecule `C=CC(=O)N1C[C@H](n2c(C#CCC)c(C(=O)N[C@H](C)c3ccccc3)c3c(N)ncnc32)C[C@@H]1C` [Example 14, 7-((3R,5S)-1-acryloyl-5-methylpyrrolidin-3-yl)-4-amino-6-(but-1-yn-1-yl)-N—((R)-1-phenylethyl)-7H-pyrrolo[2,3-d]pyrimidine-5-carboxamide] showed a concentration for half-maximal inhibition (IC50) with NCI-N87 cells of 9.1 nM.

The molecule `C=CC(=O)N1C[C@H](n2c(C#CC3CC3)c(C(=O)N[C@H](C)c3ccccc3)c3c(N)ncnc32)C[C@@H]1C` [Example 11, 7-((3R,5S)-1-acryloyl-5-methylpyrrolidin-3-yl)-4-amino-6-(cyclopropylethynyl)-N—((R)-1-phenylethyl)-7H-pyrrolo[2,3-d]pyrimidine-5-carboxamide] registered an IC50 in the data set with NCI-N87 cells of 9.9 nM. For the same molecule, the “body weight reduction of −20% or more” value in data set [1] was “not observed”. Further, the “Log 10 of total flux on Day 22 versus control group” value with NCI-N87-Luc (oral 25 mg/kg/day once a day) is “statistically significantly lower”.

In the data set with NCI-N87 cells, `C=CC(=O)N1C[C@H](n2c(C#CC)c(C(=O)N[C@H](C)c3ccccc3)c3c(N)ncnc32)C[C@@H]1CC` [Example 16, 7-((3R,5S)-1-acryloyl-5-ethylpyrrolidin-3-yl)-4-amino-N—((R)-1-phenylethyl)-6-(prop-1-yn-1-yl)-7H-pyrrolo[2,3-d]pyrimidine-5-carboxamide] registered a concentration for half-maximal inhibition (IC50) of 0.9 nM.

For the molecule `C=CC(=O)N1C[C@H](n2c(C#CC)c(C(=O)N[C@H](C)c3cc(F)cc(F)c3)c3c(N)ncnc32)C[C@@H]1C` [Example 1, 7-(R)-((3R,5S)-1-acryloyl-5-methylpyrrolidin-3-yl)-4-amino-N—((R)-1-(3,5-difluorophenyl)ethyl)-6-(prop-1-yn-1-yl)-7H-pyrrolo[2,3-d]pyrimidine-5-carboxamide], half-maximal inhibition in the data set with NCI-N87 cells (IC50) required 10.7 nM.

For the molecule `C=CC(=O)N1C[C@H](n2c(C#CC)c(C(=O)N[C@@H](c3ccccc3)C(F)(F)F)c3c(N)ncnc32)C[C@@H]1C` [Example 8, 7-((3R,5S)-1-acryloyl-5-methylpyrrolidin-3-yl)-4-amino-6-(prop-1-yn-1-yl)-N—((S)-2,2,2-trifluoro-1-phenylethyl)-7H-pyrrolo[2,3-d]pyrimidine-5-carboxamide], in the data set on NCI-N87 cells, the 50% inhibitory concentration (IC50) is 9.7 nM.

For the molecule `C=CC(=O)N1C[C@H](n2c(C#CC)c(C(=O)N[C@H](CC)c3ccccc3)c3c(N)ncnc32)C[C@@H]1C` [Example 4, 7-((3R,5S)-1-acryloyl-5-methylpyrrolidin-3-yl)-4-amino-N—((R)-1-phenylpropyl)-6-(prop-1-yn-1-yl)-7H-pyrrolo[2,3-d]pyrimidine-5-carboxamide], in the data set on NCI-N87 cells, the IC50 came to 5.6 nM.

In turn, `C=CC(=O)N1C[C@H](n2c(C#CC)c(C(=O)N[C@H](C)c3ccccc3)c3c(N)ncnc32)C[C@@H]1C` [Example 2, 7-((3R,5S)-1-acryloyl-5-methylpyrrolidin-3-yl)-4-amino-N—((R)-1-phenylethyl)-6-(prop-1-yn-1-yl)-7H-pyrrolo[2,3-d]pyrimidine-5-carboxamide] had a concentration for half-maximal inhibition (IC50) in the data set on NCI-N87 cells of 3 nM. In addition, the “body weight reduction of −20% or more” value in data set [1] was “not observed”. The “Log 10 of total flux on Day 22 versus control group” value in the data set on NCI-N87-Luc (oral 25 mg/kg/day once a day) is given as “statistically significantly lower”.

The molecule `C=CC(=O)N1C[C@H](n2c(C#CC3CC3)c(C(=O)N[C@H](C)c3ccccc3)c3c(N)ncnc32)C[C@@H]1CC` [Example 17, 7-((3R,5S)-1-acryloyl-5-ethylpyrrolidin-3-yl)-4-amino-6-(cyclopropylethynyl)-N—((R)-1-phenylethyl)-7H-pyrrolo[2,3-d]pyrimidine-5-carboxamide] displayed an IC50 in the data set with NCI-N87 cells of 2.2 nM.

As to `C=CC(=O)N1C[C@H](n2c(C#CC(C)(C)OC)c(C(=O)N[C@H](C)c3ccccc3)c3c(N)ncnc32)C[C@@H]1C` [Example 13, 7-((3R,5S)-1-acryloyl-5-methylpyrrolidin-3-yl)-4-amino-6-(3-methoxy-3-methylbut-1-yn-1-yl)-N—((R)-1-phenylethyl)-7H-pyrrolo[2,3-d]pyrimidine-5-carboxamide], in the data set on NCI-N87 cells, the IC50 came to 11.7 nM.

In the data set on NCI-N87 cells, `C=CC(=O)N1C[C@H](n2c(C#CC3CC3)c(C(=O)N[C@H](C)c3cccc(F)c3F)c3c(N)ncnc32)C[C@@H]1C` [Example 10, 7-((3R,5S)-1-acryloyl-5-methylpyrrolidin-3-yl)-4-amino-6-(cyclopropylethynyl)-N—((R)-1-(2,3-difluorophenyl)ethyl)-7H-pyrrolo[2,3-d]pyrimidine-5-carboxamide] displayed a 50% inhibitory concentration (IC50) of 10.5 nM.

In turn, `C=CC(=O)N1C[C@H](n2c(C#CC3CC3)c(C(=O)NC(C)(C)c3ccccc3)c3c(N)ncnc32)C[C@@H]1C` [Example 9, 7-((3R,5S)-1-acryloyl-5-methylpyrrolidin-3-yl)-4-amino-6-(cyclopropylethynyl)-N-(2-phenylpropan-2-yl)-7H-pyrrolo[2,3-d]pyrimidine-5-carboxamide] displayed an IC50 in the data set with NCI-N87 cells of 6.2 nM.

`C=CC(=O)N1C[C@H](n2c(C#CC(C)(C)C)c(C(=O)N[C@H](C)c3ccccc3)c3c(N)ncnc32)C[C@@H]1C` [Example 12, 7-((3R,5S)-1-acryloyl-5-methylpyrrolidin-3-yl)-4-amino-6-(3,3-dimethylbut-1-yn-1-yl)-N—((R)-1-phenylethyl)-7H-pyrrolo[2,3-d]pyrimidine-5-carboxamide] had an IC50 in the data set with NCI-N87 cells of 15 nM. In addition, the “Log 10 of total flux on Day 22 versus control group” value with NCI-N87-Luc (oral 50 mg/kg/day once a day) is recorded as “statistically significantly lower”.

Take `C=CC(=O)N1C[C@H](n2c(C#CC)c(C(=O)NC(C)(C)c3ccccc3)c3c(N)ncnc32)C[C@@H]1C` [Example 3, 7-((3R,5S)-1-acryloyl-5-methylpyrrolidin-3-yl)-4-amino-N-(2-phenylpropan-2-yl)-6-(prop-1-yn-1-yl)-7H-pyrrolo[2,3-d]pyrimidine-5-carboxamide]: in the data set with NCI-N87 cells, the IC50 turned out to be 4.7 nM.

As for `C=CC(=O)N1C[C@H](n2c(C#CC)c(C(=O)NC(C)(C)c3ccccc3F)c3c(N)ncnc32)C[C@@H]1C` [Example 5, 7-((3R,5S)-1-acryloyl-5-methylpyrrolidin-3-yl)-4-amino-N-(2-(2-fluorophenyl)propan-2-yl)-6-(prop-1-yn-1-yl)-7H-pyrrolo[2,3-d]pyrimidine-5-carboxamide], in the data set on NCI-N87 cells, the half-maximal inhibitory concentration (IC50) is 7 nM.

Take `C=CC(=O)N1C[C@H](n2c(C#CC)c(C(=O)N[C@H](C)c3cccc(Cl)c3)c3c(N)ncnc32)C[C@@H]1C` [Example 6, 7-((3R,5S)-1-acryloyl-5-methylpyrrolidin-3-yl)-4-amino-N—((R)-1-(3-chlorophenyl)ethyl)-6-(prop-1-yn-1-yl)-7H-pyrrolo[2,3-d]pyrimidine-5-carboxamide]: in the data set on NCI-N87 cells, the midpoint of inhibition, the IC50, lay at 8.5 nM.

With `C=CC(=O)N1C[C@H](n2c(C#CC3CC3)c(C(=O)N[C@H](C)c3ccccc3)c3c(N)ncnc32)C[C@@H]1COC` [Example 18, 7-((3R,5R)-1-acryloyl-5-(methoxymethyl)pyrrolidin-3-yl)-4-amino-6-(cyclopropylethynyl)-N—((R)-1-phenylethyl)-7H-pyrrolo[2,3-d]pyrimidine-5-carboxamide], it took 2.6 nM to reach half-maximal inhibition in the data set on NCI-N87 cells (IC50).
